Data from paper PMC8016831, “Structure–function engineering of novel fish gelatin-derived multifunctional peptides using high-resolution peptidomics and bioinformatics” (Scientific Reports, 2021).
Ends that are not written are not given here.

Assays:
in vitro = assay type: cell-based; details: human, Caco-2 cells
Protocol: The synthesized peptides were investigated for ACE and DPP-IV inhibitory activity, and antibacterial potential against E. coli, P. aeruginosa, S. aureus, and K. pneumoniae. Their cytotoxicity was also analyzed using the method described by Benjakul et al.[20], with some modifications. Briefly, Caco-2 and L929 cell lines were cultured in Dulbecco's Modified Eagle Medium and the RAW264.7 cell line in RPMI 1640 medium and incubated at 5% CO2 and 37 °C. All media were supplemented with 10% fetal bovine serum. Each cell line (100 µL at 2 × 10^4 cells mL^−1) was seeded onto 96-well microplates and mixed with an equal volume of each peptide at 1, 2, 4, and 6 mg mL^−1. Subsequently, the microplate was incubated for 72 h, followed by a cell viability assay using the MTT I proliferation kit (Roche Diagnostics, Basel, Switzerland). The absorbance was recorded at 570 nm.

[1] = molecular target: angiotensin-converting enzyme (ACE) (Homo sapiens, UniProt P12821); assay: In vitro antihypertensive assay (ACE inhibition, FAPGG, spectrophotometric); assay type: biochemical
Protocol: A spectrophotometrical method was used to determine the antihypertensive activity of peptides according to the procedure of Asoodeh, et al.[18], with some modifications. ACE (22 µL at 50 mU mL^−1) was mixed with 50 µL of the peptides at increasing concentrations (0.1, 0.2, 0.4, 0.8, 1, and 2 mg mL^−1). FAPGG (100 µL at 0.5 mM) and 150 µL of ACE buffer (50 mM Tris-HCl [pH 7.5] containing 0.3 M NaCl and 1 mM ZnCl2) were added to the mixture, followed by monitoring at 340 nm for 60 min. The antihypertensive activity was calculated as follows:2 Antihypertensiveactivity%=1-ΔAbssample/ΔAbscontrol×100
The ACE buffer was added to the mixture instead of the peptides for control. For determination of the experiment precision, captopril (15 nM) was used as positive control. The half maximal inhibitory concentration (IC50) was defined as the concentration of the peptides at which 50% of ACE activity was inhibited. All experiments were performed in triplicate.

[2] = tested on: K. pneumoniae (ATCC 43816); assay type: cell-based, Klebsiella pneumoniae; details: ATCC 43816, 24 h
Protocol: (§1) The hydrolysates were investigated for their antibacterial activity against E. coli (ATCC 8739), P. aeruginosa (ATCC 9027), S. aureus (ATCC 6538), and K. pneumoniae (ATCC 43816) using the […]. Briefly, 50 μL of different concentrations of peptides were prepared in sterile Mueller Hinton broth. A volume of 30 μL of resazurin indicator solution (0.02%) was added to each well. An equal volume of bacterial suspension (0.5 McFarland standard) and sterile Mueller Hinton broth was then added to the well and incubated at 37 °C for 24 h. Sterile Mueller Hinton broth and 20 μg mL^−1 gentamycin were used as blank and positive controls, respectively. Afterward, the minimum inhibitory concentration (MIC) was determined as the lowest concentration of the peptides at which no visible growth was observed, compared to the positive control. All dilutions were performed in duplicate.

[3] = tested on: P. aeruginosa (ATCC 9027); assay type: cell-based, Pseudomonas aeruginosa; details: ATCC 9027, 24 h
Protocol: as §1

S. aureus (ATCC 6538) = assay type: cell-based, Staphylococcus aureus; details: ATCC 6538, 24 h
Protocol: as §1

E. coli (ATCC 8739) = assay type: cell-based, Escherichia coli; details: ATCC 8739, 24 h
Protocol: as §1

[4] = molecular target: dipeptidyl peptidase IV (DPP-IV) (Homo sapiens, UniProt P27487); assay: In vitro antidiabetic assay (DPP-IV inhibition); assay type: biochemical
Protocol: To assess antidiabetic activity, a pre-incubated solution (50 μL) containing 30 μL Tris-HCl buffer, 5 μL of peptides (0.1, 0.2, 0.4, 0.8, 1, 2, and 4 mg mL^−1) or standard (5 μM), and 15 μL […] were poured into the wells of a 96-well microplate. Afterward, 50 μL DPP-IV (0.02 U mL^−1) was added to the mixture and incubated at 37 °C for 30 min. The reaction was stopped by adding 100 μL sodium acetate (1 M, pH 4). Absorbance at 405 nm was measured in a microplate reader. Diprotein-A (isoleucine-proline-isoleucine) was used as a standard DPP-IV inhibitor. The antidiabetic activity was calculated as follows:3 DPP - IVinhibitoryactivity(%)=1-Asample-Ablanck/Apositicecontrol-Anegativecontrol×100
Tris-HCl (100 mM) was added to the mixture instead of DPP-IV, peptide, or peptide plus DPP-IV to represent a blank, positive, and negative control, respectively.

DPP-IV = tested on: DPP-IV; design: method as in PMID 26323964; details: cited from earlier work
ACE = details: cited from earlier work

Chain of dipeptidyl peptidase IV (DPP-IV) (P27487 whole entry, species assumed): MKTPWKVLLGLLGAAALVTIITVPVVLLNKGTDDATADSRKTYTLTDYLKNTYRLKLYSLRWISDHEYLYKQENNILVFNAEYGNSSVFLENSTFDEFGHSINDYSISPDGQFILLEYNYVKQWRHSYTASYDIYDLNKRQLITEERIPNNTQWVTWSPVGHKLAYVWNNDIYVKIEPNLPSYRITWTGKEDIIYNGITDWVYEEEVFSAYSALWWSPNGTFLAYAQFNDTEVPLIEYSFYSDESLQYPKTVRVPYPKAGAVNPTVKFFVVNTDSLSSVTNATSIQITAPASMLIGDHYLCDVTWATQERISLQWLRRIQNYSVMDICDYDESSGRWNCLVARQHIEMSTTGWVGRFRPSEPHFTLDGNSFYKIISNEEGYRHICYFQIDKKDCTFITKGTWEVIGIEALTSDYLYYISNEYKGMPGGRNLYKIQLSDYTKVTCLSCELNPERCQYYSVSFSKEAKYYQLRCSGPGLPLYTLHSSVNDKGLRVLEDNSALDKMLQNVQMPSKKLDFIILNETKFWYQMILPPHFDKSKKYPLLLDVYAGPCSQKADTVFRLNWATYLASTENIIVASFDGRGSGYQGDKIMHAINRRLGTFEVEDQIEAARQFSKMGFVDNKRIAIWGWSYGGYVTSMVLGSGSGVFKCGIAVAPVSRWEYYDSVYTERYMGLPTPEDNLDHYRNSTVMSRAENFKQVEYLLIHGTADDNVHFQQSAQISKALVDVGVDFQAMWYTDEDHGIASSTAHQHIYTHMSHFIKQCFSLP
Chain of angiotensin-converting enzyme (ACE) (P12821 30-1306, species assumed): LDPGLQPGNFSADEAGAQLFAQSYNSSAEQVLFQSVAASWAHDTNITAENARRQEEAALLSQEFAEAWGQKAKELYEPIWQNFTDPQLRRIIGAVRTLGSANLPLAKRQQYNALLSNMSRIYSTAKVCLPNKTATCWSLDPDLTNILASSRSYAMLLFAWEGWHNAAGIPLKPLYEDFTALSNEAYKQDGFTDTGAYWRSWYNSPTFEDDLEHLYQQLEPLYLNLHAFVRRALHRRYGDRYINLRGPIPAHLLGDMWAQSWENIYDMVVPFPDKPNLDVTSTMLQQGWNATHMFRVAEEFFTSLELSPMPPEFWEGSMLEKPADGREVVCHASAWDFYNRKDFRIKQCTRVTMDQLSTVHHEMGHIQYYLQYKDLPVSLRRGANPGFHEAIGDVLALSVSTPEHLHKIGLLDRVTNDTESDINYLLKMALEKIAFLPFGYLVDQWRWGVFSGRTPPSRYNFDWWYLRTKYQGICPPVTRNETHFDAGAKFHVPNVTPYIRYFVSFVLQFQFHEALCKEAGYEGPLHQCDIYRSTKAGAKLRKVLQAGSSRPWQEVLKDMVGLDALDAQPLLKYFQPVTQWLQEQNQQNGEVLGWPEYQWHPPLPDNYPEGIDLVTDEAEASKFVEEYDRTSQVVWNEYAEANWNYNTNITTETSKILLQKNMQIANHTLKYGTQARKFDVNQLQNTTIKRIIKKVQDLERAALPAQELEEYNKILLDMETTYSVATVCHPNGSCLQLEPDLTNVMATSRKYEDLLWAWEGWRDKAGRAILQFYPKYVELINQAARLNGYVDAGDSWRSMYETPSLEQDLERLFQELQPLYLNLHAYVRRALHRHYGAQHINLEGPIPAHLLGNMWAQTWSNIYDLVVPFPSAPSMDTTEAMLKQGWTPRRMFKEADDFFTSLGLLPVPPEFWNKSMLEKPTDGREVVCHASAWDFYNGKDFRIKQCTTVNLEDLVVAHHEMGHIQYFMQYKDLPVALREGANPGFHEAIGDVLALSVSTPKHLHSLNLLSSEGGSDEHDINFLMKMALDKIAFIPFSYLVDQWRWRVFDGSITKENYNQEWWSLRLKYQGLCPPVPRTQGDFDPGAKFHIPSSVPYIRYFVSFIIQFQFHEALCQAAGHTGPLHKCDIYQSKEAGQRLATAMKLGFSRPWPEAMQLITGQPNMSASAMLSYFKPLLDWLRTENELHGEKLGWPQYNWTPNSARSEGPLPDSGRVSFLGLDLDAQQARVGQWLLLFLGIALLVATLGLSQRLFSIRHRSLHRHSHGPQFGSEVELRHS

| Substance | viability at 72 h, 6 mg mL^−1 (in vitro) | IC50 [1] | MIC against K. pneumoniae [2] | MIC against P. aeruginosa [3] | MIC against S. aureus (S. aureus (ATCC 6538)) | MIC for E. coli (E. coli (ATCC 8739)) | IC50 [4] | DPP-IV inhibitory activities (DPP-IV) | ACE inhibition (ACE) |
| --- | --- | --- | --- | --- | --- | --- | --- | --- | --- |
| GRDGEP-NH2 [P2, GRDGEP] | 95.8% | 811 µM | ≥ 2000 µg/mL | ≥ 2000 µg/mL | 1160 µg/mL | 1330 µg/mL | 1480 µM | – | – |
| MHQPPQPL | – | – | – | – | – | – | – | moderate | – |
| MTGTQGEAGR-NH2 [P3, MTGTQGEAGR] | 95.9% | 775 µM | 1500 µg/mL | 1660 µg/mL | 200 µg/mL | 460 µg/mL | 1150 µM | – | – |
| SPTVMFPPQSVL | – | – | – | – | – | – | – | moderate | – |
| VLAQYK | – | – | – | – | – | – | – | – | 30.1% |
